Data from article PMC12263422, “Cryo-EM structure of the human THIK-1 K2P K^+ channel reveals a lower Y gate regulated by lipids and anesthetics” (Nature Structural & Molecular Biology, 2025).
Where “and” joins values, the source holds several entries; their conditions need not be identical. Equal entries are not always repeated. Where two headings read alike, the source gives them in different places. One block for each compound: values may come before it.

Assays:
THIK-1 R258A = biological target: T1, THIK-1 R258A (Homo sapiens, UniProt Q9HB14, R258A); assay: Inside-out excised patch recordings, oocytes, THIK-1 R258A mutant (lipid activation); format: cell-based; conditions: read-out: Linoleic acid EC50
T1 construct: expressed in transfected cells; host or cells: Xenopus oocytes (mRNA injection)
From the text: Supplement 41594_2025_1497_MOESM2_ESM.xlsx, sheet "ExtData_Fig_S5f" | column: Linoleic acid EC50 (µM); R258A

THIK-1 V269A = biological target: T2, THIK-1 V269A (Homo sapiens, UniProt Q9HB14, V269A); assay: Inside-out excised patch recordings, oocytes, THIK-1 V269A mutant; format: cell-based; conditions: for IC50: read-out: TPenA IC50
T2 construct: expressed in transfected cells; host or cells: Xenopus oocytes (mRNA injection)
T2 sequence (Q9HB14 1-408 V269A): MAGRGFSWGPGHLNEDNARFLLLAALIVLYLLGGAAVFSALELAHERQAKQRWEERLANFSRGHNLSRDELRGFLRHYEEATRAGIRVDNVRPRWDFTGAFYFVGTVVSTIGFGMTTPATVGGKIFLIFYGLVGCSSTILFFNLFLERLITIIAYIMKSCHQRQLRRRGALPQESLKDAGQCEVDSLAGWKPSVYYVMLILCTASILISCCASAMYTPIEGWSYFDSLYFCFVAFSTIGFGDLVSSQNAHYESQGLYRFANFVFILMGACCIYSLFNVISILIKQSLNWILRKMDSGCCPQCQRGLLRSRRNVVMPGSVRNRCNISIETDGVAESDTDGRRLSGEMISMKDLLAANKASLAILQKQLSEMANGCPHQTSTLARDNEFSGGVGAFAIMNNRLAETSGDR
From the text: Human K2P13.1 THIK-1 (GenBank accession number: NM_022054) and human K2P12.1 THIK-2 (NM_022055.1) were used in this study. For functional expression studies, the respective K^+ channel subtype coding sequences were subcloned into the oocyte expression vector pSGEM or the dual-purpose expression vector pFAW[41] and verified by sequencing. All mutant channels were obtained by site-directed mutagenesis and verified by sequencing. To increase surface expression and macroscopic currents, measurements of THIK-2 channels used a mutated ER retention motif, (R11A R12A R14A R15A R16A; THIK-2*)[20]. Vector DNA was linearized with NheI or MluI, and mRNA was synthesized in vitro using the SP6 or T7 AmpliCap Max High Yield Message Maker Kit (Cellscript, USA) or HiScribe T7 ARCA mRNA Kit (New England Biolabs).
Two-electrode voltage–clamp (TEVC) studies were performed in Xenopus oocytes. All animal use conformed to the Guide for the Care and Use of Laboratory Animals (NIH Publication 85–23), and all experiments using Xenopus toads were approved by the local ethics panels. Oocytes were stored at 17 °C in ND96 recording solution composed of (in mM): 96 NaCl, 2 KCl, 1.8 CaCl2, 1 MgCl2, 5 HEPES (pH 7.5 adjusted with NaOH and HCl), supplemented with Na-pyruvate (275 mg L^–1), theophylline (90 mg L^–1) and gentamicin (50 mg L^–1). Oocytes were injected with 1 ng mRNA for WT or mutant channels, and were incubated for 24–48 h at 17 °C. Two-electrode voltage clamp recordings were then performed as previously described[42],[43]. For macroscopic patch–clamp measurements, oocytes were obtained as described above incubated at 17 °C in a solution containing (mM): 54 NaCl, 30 KCl, 2.4 NaHCO3, 0.82 MgSO4 ×7 H2O, 0.41 CaCl2, 0.33 Ca(NO3)2 ×4 H2O and 7.5 TRIS (pH 7.4 adjusted with NaOH and HCl) for 1–4 days before use. Excised patch recordings in inside-out configuration conditions were performed at room temperature. Patch pipettes were made from thick-walled borosilicate glass GB 200TF-8P (Science Products), had resistances of 0.2–0.5 MΩ (tip diameter, 10–25 µm) and filled with a pipette solution (in mM): 120 KCl, 10 HEPES and 3.6 CaCl2 (pH 7.4 adjusted with KOH and HCl). Intracellular bath solutions and compounds were applied to the cytoplasmic side of excised patches for the various K^+ channels through a gravity flow multi-barrel pipette system. The intracellular solution had the following composition (in mM): 120 KCl, 10 HEPES, 2 EGTA and 1 pyrophosphate (pH adjusted with KOH and HCl). Currents were recorded with an EPC10 amplifier (HEKA Electronics) and sampled at 10 kHz or higher, with filtering set to 3 kHz (–3 dB) or higher, as appropriate for sampling rate. For measurements of GPCR activation, whole-cell currents were recorded for THIK-1 in transiently transfected HEK-293 cells. Cells were stimulated by a ramp protocol between −100 and +60 mV (holding potential, −80 mV). The pipette solution was composed of (in mM): 140 KCl, 2 MgCl2, 1 CaCl2, 2.5 EGTA and 10 HEPES (pH 7.3 adjusted with KOH and HCl). The extracellular bath solution had the following composition (in mM): 135 NaCl, 5 KCl, 2 MgCl2, 2 CaCl2, 10 glucose and 10 HEPES pH (pH 7.3 adjusted with NaOH and HCl). Oxotremorine M (Oxo-M) was added to extracellular bath solution to obtain the final concentration. Single-channel currents were recorded with an Axopatch 200B amplifier through a Digidata 1440A digitizer (Molecular Devices). Data were filtered at 2 kHz and recorded at a 200-kHz sampling rate with the program Clampex (Molecular Devices). Pipette solution and bath solution for cell-attached recordings contained (in mM): 140 KCl, 2 MgCl2, 1 CaCl2 and 10 HEPES (pH 7.4 adjusted with KOH and HCl). For inside-out recordings, the bath solution contained (in mM): 140 KCl, 2 MgCl2, 1 CaCl2 and 10 HEPES (pH 7.2 adjusted with KOH and HCl). All experiments were conducted at room temperature. […]

T1 sequence (Q9HB14 whole entry R258A): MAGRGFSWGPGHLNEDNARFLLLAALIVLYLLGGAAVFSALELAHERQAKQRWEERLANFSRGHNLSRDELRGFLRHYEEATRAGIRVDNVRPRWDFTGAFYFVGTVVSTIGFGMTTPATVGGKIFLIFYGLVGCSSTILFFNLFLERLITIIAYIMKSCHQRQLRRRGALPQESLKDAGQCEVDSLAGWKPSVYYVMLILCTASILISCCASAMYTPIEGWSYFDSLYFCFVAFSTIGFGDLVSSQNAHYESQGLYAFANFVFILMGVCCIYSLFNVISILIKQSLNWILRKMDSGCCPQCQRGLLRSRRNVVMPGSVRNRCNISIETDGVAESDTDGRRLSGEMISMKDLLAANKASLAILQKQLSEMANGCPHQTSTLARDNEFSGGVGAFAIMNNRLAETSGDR

EC50 (THIK-1 R258A; individual recordings): 24.9 µM and 30.3 µM and 69.4 µM and 74.3 µM and 47.4 µM and 62.2 µM and 21.9 µM and 23.3 µM and 47.9 µM and 30 µM
EC50 (THIK-1 R258A; mean): 43.2 µM
SMILES: CCCCC/C=C\C/C=C\CCCCCCCC(=O)O [linoleic acid]

SMILES: CCCCC[N+](CCCCC)(CCCCC)CCCCC [TPenA, tetrapentylammonium]
Normalized currents (THIK-1 V269A; THIK-1 V269A, 1 µM TPenA): 1.00
Normalized currents (THIK-1 V269A; THIK-1 V269A, 4 µM TPenA): 0.97
Normalized currents (THIK-1 V269A; THIK-1 V269A, 15.6 µM TPenA): 0.93
Normalized currents (THIK-1 V269A; THIK-1 V269A, 62.5 µM TPenA): 0.87
Normalized currents (THIK-1 V269A; THIK-1 V269A, 250 µM TPenA): 0.78
Normalized currents (THIK-1 V269A; THIK-1 V269A, 1000 µM TPenA): 0.65
Normalized currents (THIK-1 V269A; THIK-1 V269A, 4000 µM TPenA): 0.45
IC50 (THIK-1 V269A; THIK-1 V269A, mean): 2200 µM
IC50 (THIK-1 V269A; V269A mutant): 2200 µM
